Laboratory results published in patent US12486227B2, “Small molecules for cancer therapy that reduce the expression of transcription factors KLF5 and EGR-1” (University of Florida Research Foundation, Incorporated, priority 2019, dated 2025).

Test system: KLF5
Test: Western blot of KLF5 protein levels in DLD-1 cells
Format: cell-based, human
Details: 1 μM and 10 μM, 24 h
Experimental: In this experiment the test compounds were at 1 μM and 10 μM, and protein levels were measured after 24 h.
Western blot analysis. Total protein was extracted from cells with Laemmli buffer and the analysis was performed as described previously (24).

CS(=O)(=O)N1CCN(C(=O)CNC(=O)/C=C/c2ccc(Cl)c(Cl)c2)CC1 [Example 9, (E)-3-(3,4-dichlorophenyl)-N-(2-(4-(methylsulfonyl)piperazin-1-yl)-2-oxoethyl)acrylamide]
KLF5 protein levels by Western blot: significantly reduced
